What was measured:
Type in all cases: cell-based
Ljungan virus strain 145 = assay: CPE inhibition in mammalian cell culture, LV145; parameters: inhibition: dose or concentration left out as unconfirmed; details: Parechovirus B; for inhibition: Conc.; for inhibition / inhibition at 100 µM: read-out: antiviral effect, LV145; for inhibition at 100 µM: Conc. 0.1 mM
Enterovirus strain 71 = assay: CPE inhibition in mammalian cell culture, EV71; parameters: inhibition: dose or concentration left out as unconfirmed; details: for inhibition: Conc.; for inhibition / inhibition at 100 µM: read-out: antiviral effect, EV71; for inhibition at 100 µM: Conc. 0.1 mM
Enterovirus strain 30 = assay: CPE inhibition in mammalian cell culture, EV30; details: read-out: antiviral effect, EV30; for inhibition at 10 µM: Conc. 10 µM; for inhibition at 100 µM: Conc. 0.1 mM; for inhibition at 1 µM: Conc. 1 µM
Porcine Tescho virus = assay: microbe, parasite or virus in culture; parameters: dose or concentration left out as unconfirmed; details: Conc.; read-out: antiviral effect, PTV
[1] = test system: coxsackie B virus strain 2; assay: CPE inhibition in mammalian cell culture, Cox-B2; parameters: inhibition: dose or concentration left out as unconfirmed; details: read-out: antiviral effect, B2
[2] = test system: coxsackie B virus strain 5; assay: CPE inhibition in mammalian cell culture, Cox-B5; parameters: inhibition: dose or concentration left out as unconfirmed; details: read-out: antiviral effect, B5
Ljungan virus strain 012 = assay: CPE inhibition in mammalian cell culture, LV012; details: Parechovirus B, read-out: antiviral effect, LV012; for inhibition at 10 µM: Conc. 10 µM; for inhibition at 100 µM: Conc. 0.1 mM; for inhibition at 1 µM: Conc. 1 µM
[3] = test system: encephalomyocarditis virus; assay: CPE inhibition in mammalian cell culture, EMCV; parameters: inhibition: dose or concentration left out as unconfirmed; details: Cardiovirus A, read-out: antiviral effect, EMCV; for inhibition: Conc.; for inhibition at 100 µM: Conc. 0.1 mM
[4] = test system: coxsackie B virus strain 1; assay: CPE inhibition in mammalian cell culture, Cox-B1; parameters: inhibition: dose or concentration left out as unconfirmed; details: for inhibition at 10000 µM / inhibition / inhibition at 1000 µM: read-out: antiviral effect, B1
[5] = test system: Human parechovirus strain 1; assay: CPE inhibition in mammalian cell culture, HPeV-1; details: Parechovirus A, read-out: antiviral effect, HPeV-1; for inhibition at 10 µM: Conc. 10 µM; for inhibition at 100 µM: Conc. 0.1 mM
polio virus strain 1 = assay: microbe, parasite or virus in culture; parameters: inhibition: dose or concentration left out as unconfirmed; details: read-out: antiviral effect, Polio 1
[6] = test system: coxsackie B virus strain 3; assay: CPE inhibition in mammalian cell culture, Cox-B3; parameters: inhibition: dose or concentration left out as unconfirmed; details: for inhibition at 0.01 µM: read-out: % inh.
[7] = test system: coxsackie B virus strain 4; assay: CPE inhibition in mammalian cell culture, Cox-B4; parameters: inhibition: dose or concentration left out as unconfirmed; details: read-out: antiviral effect, B4
Enterovirus strain 6 = assay: microbe, parasite or virus in culture; parameters: inhibition: dose or concentration left out as unconfirmed; details: for inhibition: read-out: antiviral effect, EV6
EV68 = assay: CPE inhibition in mammalian cell culture, EV68; parameters: antiviral effect, EV68: unit of the concentration uncertain

Row | SMILES | inhibition (Ljungan virus strain 145) [%] | inhibition (Enterovirus strain 71) [%] | inhibition at 10 µM (Enterovirus strain 30) [%] | inhibition (Porcine Tescho virus) [%] | inhibition at 10000 µM [1] [%] | inhibition at 10000 µM [2] [%] | inhibition at 10 µM (Ljungan virus strain 012) [%] | inhibition at 100 µM (Ljungan virus strain 145) [%] | inhibition at 100 µM (Enterovirus strain 71) [%] | inhibition at 100 µM (Enterovirus strain 30) [%] | inhibition (Enterovirus strain 6) [%] | inhibition [1] [%] | inhibition [2] [%] | inhibition at 100 µM (Ljungan virus strain 012) [%] | inhibition at 100 µM [3] [%] | inhibition [4] [%] | inhibition (polio virus strain 1) [%] | inhibition ([6]; read-out: antiviral effect, B3) [%] | antiviral effect, EV68 (EV68; Conc. 0.1 (unit uncertain)) [%] | inhibition [7] [%] | also measured
1 | CC(C)c1cc(NCc2ccccc2)n2ncc(-c3ccccc3)c2n1 [Ex. 4, N-benzyl-5-isopropyl-3-phenyl-pyrazolo[1,5-a]pyrimidin-7-amine] | 61 | 69 | 0 | 87 | 0 | 0 | 28 |  |  |  |  |  |  |  |  |  |  |  |  |  | inhibition at 2.5 µM (Enterovirus strain 71; EV71, Conc. 2.5 μM): 46%; inhibition [3]: 81%; inhibition at 10000 µM [4]: 36%; inhibition at 10 µM [5]: 7%; inhibition at 10000 µM (polio virus strain 1): 17%; inhibition at 10000 µM ([6]; read-out: antiviral effect, B3): 0%; inhibition at 10000 µM [7]: 53%
2 | COc1ccc(-c2c(C)nn3c(NCc4ccc(C)cc4)cc(C)nc23)cc1OC [Ex. 6, 3-(3,4-dimethoxyphenyl)-2,5-dimethyl-N-(p-tolylmethyl)pyrazolo[1,5-a]pyrimidin-7-amine] | 63 | 37 | 44 | 62 | 82 | 54 | 28 |  |  |  |  |  |  |  |  |  |  |  |  |  | inhibition at 5 µM (Ljungan virus strain 145; LV145, Conc. 5.0 μM): 56%; inhibition [3]: 0%; inhibition at 10000 µM [4]: 35%; inhibition at 10 µM [5]: 60%; inhibition at 10000 µM (polio virus strain 1): 19%; inhibition at 10000 µM [7]: 69%
3 | COc1ccc(-c2c(C)nn3c(NCC(C)c4ccccc4)cc(C)nc23)cc1OC (stereo not drawn) [Ex. 10, 3-(3,4-dimethoxyphenyl)-2,5-dimethyl-N-(2-phenylpropyl)pyrazolo[1,5-a]pyrimidin-7-amine] | 41 | 58 | 88 | 43 | 97 | 92 | 0 |  |  |  |  |  |  |  |  |  |  |  |  |  | inhibition at 2.5 µM (Ljungan virus strain 145; LV145, Conc. 2.5 μM): 69%; inhibition [3]: 25%; inhibition at 10000 µM [4]: 79%; inhibition at 10 µM [5]: 3%; inhibition at 10000 µM [7]: 94%
4 | COc1ccc(-c2c(C)nn3c(NCc4ccncc4)cc(C)nc23)cc1OC [Ex. 75, 3-(3,4-dimethoxyphenyl)-2,5-dimethyl-N-(4-pyridylmethyl)pyrazolo[1,5-a]pyrimidin-7-amine] |  |  |  |  |  |  |  | 0 | 85 | 100 | 90 | 100 | 98 | 0 | 0 | 100 | 100 | 89 | 31 | 100 | inhibition at 100 µM [5]: 0%; inhibition at 0.01 µM [6]: 85%
5 | COc1ccc(CNc2cc(C)nc3c(-c4ccc(OC)c(OC)c4)c(C)nn23)cn1 [Ex. 79, 3-(3,4-dimethoxyphenyl)-N-[(6-methoxy-3-pyridyl)methyl]-2,5-dimethyl-pyrazolo[1,5-a]pyrimidin-7-amine] |  |  |  |  |  |  |  | 0 | 88 | 10 | 0 | 84 | 98 | 0 | 0 | 88 | 79 | 87 | 46 | 78 | inhibition at 100 µM [5]: 0%; inhibition at 1 µM (EV68; EV68, Conc. 1 μM): 51%
6 | COc1ccc(-c2c(C)nn3c(NCc4ccc(NS(C)(=O)=O)cc4)cc(C)nc23)cc1OC [Ex. 80, N-[4-[[[3-(3,4-dimethoxyphenyl)-2,5-dimethyl-pyrazolo[1,5-a]pyrimidin-7-yl]amino]methyl]phenyl]methanesulfonamide] |  |  |  |  |  |  |  |  |  |  |  |  |  |  |  |  |  |  |  |  | inhibition at 1 µM (Enterovirus strain 30): 90%; inhibition at 1 µM (Enterovirus strain 6; read-out: % inh.): 93%; inhibition at 1000 µM [1]: 96%; inhibition at 1000 µM [2]: 97%; inhibition at 1 µM (Ljungan virus strain 012): 0%; inhibition at 1000 µM [4]: 78%; inhibition at 1 µM ([5]; Conc. 1 µM): 0%; inhibition at 1000 µM (polio virus strain 1): 85%; inhibition at 1000 µM ([6]; read-out: antiviral effect, B3): 78%; antiviral effect, EV68 (EV68; Conc. 1 (unit uncertain)): 30%; inhibition at 1000 µM [7]: 78%
7 | COc1ccc(-c2c(C)nn3c(NCc4ccc(O)cc4)cc(C)nc23)cc1OC [Ex. 81, 4-[[[3-(3,4-dimethoxyphenyl)-2,5-dimethyl-pyrazolo[1,5-a]pyrimidin-7-yl]amino]methyl]phenol] |  |  |  |  |  |  |  | 0 | 86 | 97 | 62 | 88 | 81 | 0 | 0 | 85 | 89 | 87 | 29 | 77 | inhibition at 0.01 µM ([4]; read-out: % inh.): 76%; inhibition at 100 µM [5]: 0%
8 | COc1ccc(-c2c(C)nn3c(NCc4cccc(S(C)(=O)=O)c4)cc(C)nc23)cc1OC [Ex. 82, 3-(3,4-dimethoxyphenyl)-2,5-dimethyl-N-[(3-methylsulfonylphenyl)methyl]pyrazolo[1,5-a]pyrimidin-7-amine] |  |  |  |  |  |  |  | 0 |  | 94 | 89 | 98 | 89 | 0 | 0 | 95 | 100 | 91 | 24 | 100 | inhibition at 0.01 µM [6]: 82%
9 | COc1ccc(-c2cnn3c(NCc4cccc(S(C)(=O)=O)c4)cc(C)nc23)cc1OC [Ex. 101, 3-(3,4-dimethoxyphenyl)-5-methyl-N-[(3-methylsulfonylphenyl)methyl]pyrazolo[1,5-a]pyrimidin-7-amine] |  |  |  |  |  |  |  | 0 | 99 | 89 | 44 | 99 | 29 | 0 | 0 |  | 100 | 90 |  |  | inhibition at 0.1 µM (Enterovirus strain 71; EV71, Conc. 0.1 μM): 99%
10 | COc1ccc(-c2c(C)nn3c(NCc4ccc(F)cc4)cc(C(C)C)nc23)cc1OC [Ex. 111, 3-(3,4-dimethoxyphenyl)-N-[(4-fluorophenyl)methyl]-5-isopropyl-2-methyl-pyrazolo[1,5-a]pyrimidin-7-amine] |  |  |  |  |  |  |  |  |  |  |  |  |  |  |  |  |  |  |  |  | inhibition at 1 µM (Enterovirus strain 30): 80%; inhibition at 1000 µM [1]: 96%; inhibition at 1000 µM [2]: 99%; inhibition at 1 µM (Ljungan virus strain 012): 0%; inhibition at 0.1 µM ([4]; read-out: % inh.): 68%; inhibition at 1000 µM [4]: 97%; inhibition at 1000 µM (polio virus strain 1): 100%; inhibition at 1000 µM ([6]; read-out: antiviral effect, B3): 100%; antiviral effect, EV68 (EV68; Conc. 1 (unit uncertain)): 40%; inhibition at 1000 µM [7]: 98%

Reference: US9963455B2, “Pyrazolo[1,5-a]pyrimidines as antiviral compounds” (Curovir AB, priority 2014, dated 2018)
